Structures are written as SMILES.

Regarding `CC(C)[NH+]1CCC(NN)CC1`, under “basic group”, the pKa (as a rule, the pH at which an ionisable group is half protonated) was found to be 5.75.
The same measure, in the same setting: to `CN(C)c1ccc(C(=N)c2ccc(N(C)C)cc2)cc1` belongs 10.7.
Consider `O=C(O)CC(c1[nH]cc[nH+]1)c1[nH]cc[nH+]1`, for which the pKa (acidic group) stood at 2.79.
The compound `C=C(C)C(C)(C(N)=O)C(=O)O` (stereo unspecified) had a pKa (acidic group) of 3.42.
Under “basic group”, `CCCN(CC)c1ccccc1` yielded a pKa of 6.39.
Turning to `O=S(=O)(Cc1ccccc1)c1ncc[nH]1`, the pKa (acidic group) was found to be 8.67.
Still for that read-out and setting: to `O=C1NC(=O)c2c1cccc2[N+](=O)[O-]` belongs 8.8.
Regarding `c1coc(CNCCNCc2ccco2)c1`, the pKa (basic group) came to 8.61.
As for `FC(F)(F)c1cc(C(F)(F)F)[nH]n1`, the pKa (acidic group) stood at 7.51.
Turning to `Oc1c(I)cc(Cl)c2cccnc12`, the pKa is 7.9 (acidic group) and 2.61 (basic group).
`CC(C)NNC1CCN(C(C)C)CC1` yielded a pKa (basic group) of 9.55.
Same read-out and setting: the result for `CC(C)C[C@H](N)C(=O)[O-]` reads 9.62.
Turning to `[O-]/N=C1\CCCCC\C1=N/O`, the pKa (acidic group) is 12.3.
Compound `CCN(CC)CCOCCN(C)C` registered a pKa (basic group) of 10.2.
As to `CCCCN(CC[S-])CCCC`, under “basic group”, the pKa stood at 11.6.
Consider `O=C(OCc1ccccc1)c1ccc(O)cc1`, for which the pKa (acidic group) is 8.31.
In turn, `COC(=N)N` came in with a pKa (basic group) of 9.72.
Consider `C[NH2+]C(C)C(=O)O` (stereo unspecified), for which the pKa (acidic group) was 2.22.
On to `Cc1ccc(O)c(=O)cc1`, for which the pKa (acidic group) is 7.32.
As for `CNCCc1ccc(O)cc1`, the pKa (basic group) was 9.36.
In the case of `NC(=S=O)c1ccccc1`, the pKa (basic group) is 0.8.
With `COC(=O)CC(=N/[O-])/C(C)=N/O`, the pKa (acidic group) came out at 11.6.
The same measure, in the same setting: to `CCCS(=O)O` belongs 2.35.
In turn, `Cn1c(=O)c2[nH]c[nH+]c2n(C)c1=O` registered a pKa (basic group) of 0.7.
For `CC(C)NCCc1ccc([O-])cc1`, under “basic group”, the pKa came to 10.8.
`NS(=O)(=O)c1nnc(Nc2ccccc2)s1` showed a pKa (acidic group) of 7.7.
Turning to `CC/N=C1\C=C(NCC)CC(C)(C)C1`, the pKa (basic group) is 12.1.
In the case of `O=c1cccc(O)cc1`, the pKa (acidic group) amounted to 5.64.
Compound `c1ccc2c(c1)CCNC2` showed a pKa (basic group) of 9.48.
On the same count and under the same terms, to `CCP(=S)(CC)C(=S)NN` belongs 5.6.
`CN(C)C(=O)OCC(=O)O` showed a pKa (acidic group) of 3.01.
For the compound `O=C(Cc1ccccc1)C(CN1CCOCC1)c1ccccc1` (stereo unspecified), the pKa (basic group) was 6.17.
Regarding `Oc1cccc2scnc12`, the pKa is, setting by setting: (acidic group) 8.77; (basic group) 1.25.
As for `CC(C)SCC(=O)O`, the pKa (acidic group) stood at 3.72.
With `C[C@H]1CC[C@H]2[C@H](C)CC[C@@H](C(=O)[O-])N2C1`, for the setting “basic group”, the pKa turned out to be 10.8.
In the case of `O=C([O-])CC(=O)/C=N/O`, where the note is “acidic group”, the pKa was determined as 8.7.
`CN(C)c1ccc(C(O)c2ccc(N(C)C)cc2)cc1` displayed a pKa (basic group) of 5.61.
The same measure, in the same setting: to `Nc1ccnc2c([O-])cccc12` belongs 10.7.
On to `COc1ccc(NC(=S)c2ccc(Cl)cc2)cc1`, for which the pKa (acidic group) came out at 11.3.
In turn, `O=C(O)[C@@H](O)Cc1c[nH]c[nH+]1` registered a pKa (acidic group) of 2.99.
Still for that read-out and setting: the result for `O=Cc1cc(Br)cc([N+](=O)[O-])c1O` reads 4.46.
For `C[C@@H]1CCC[C@H](C)N1C`, the pKa (basic group) is 10.2.
For the setting “basic group”, `Cc1cc(-c2cc(C)n[nH]2)[nH]n1` showed a pKa of 2.8.
Take `CCOC(=O)C(N)CC` (stereo unspecified): the pKa (basic group) worked out at 7.71.
As to `CC(=O)C(C)C(C)(C)C(=O)O` (stereo unspecified), the pKa (acidic group) was found to be 5.79.
Same read-out and setting: the result for `Nc1ccc(S(=O)(=O)Nc2ccc(S(N)(=O)=O)cc2)cc1` reads 7.85.
Turning to `CCN(CC)CC#N`, the pKa (basic group) is 4.18.
The same measure, in the same setting: the result for `COc1cc(S(C)=O)ccc1-c1nc2cnccc2[nH]1` (stereo unspecified) reads 6.16.
The same measure, in the same setting: the result for `CN(C)Cc1cccc(O)c1O` reads 8.01; that for `Clc1cnc2c(ccc3cccnc32)c1`, 3.99.
`Cc1cc(C)n(Cc2cc(C)[nH]n2)n1`: the pKa (basic group) worked out at 3.5.
On the same count and under the same terms, the result for `CCN(CC#N)CC#N` reads 3.98.
Take `Cc1cc(/N=N/c2nc3ccccc3s2)c(O)c2ncccc12`: the pKa (acidic group) amounted to 9.6.
The compound `[NH3+]c1ccc(-c2ncc(-c3ccccc3)o2)cc1` gave a pKa (basic group) of 0.06.
Turning to `C1CCN(CCC[NH+]2CCCC2)C1`, the pKa (basic group) came out at 8.03.
The compound `O=C(Cc1ccccn1)c1ccccc1` showed a pKa (acidic group) of 13.3 and a pKa (basic group) of 4.53.
`CSc1nccc(C)n1` showed a pKa (basic group) of 1.95.
The same measure, in the same setting: to `Nc1ccc2cc3ccc(Cl)cc3nc2c1` belongs 7.26.
The compound `C/C(C#[N+][O-])=N\O` returned a pKa (acidic group) of 8.8.
On to `COc1ccc2nccc(C(O)C3CCCC[NH2+]3)c2c1` (stereo unspecified), for which the pKa (basic group) was 4.34.
Regarding `CC[NH2+]C(C)C(=O)O` (stereo unspecified), the pKa (acidic group) was 2.22.
`CN(C)CCC/N=C(\c1ccccc1)c1ccc2ccccc2c1`: the pKa (basic group) stood at 9.2.
With `CCOC(=O)CCN(C)C`, the pKa (basic group) came out at 8.6.
Under “acidic group”, `O=C(O)[C@@H]1CC[C@H](C(=O)O)C1` returned a pKa of 4.24.
Turning to `CCN(CC)CC[NH+](CC)CC`, the pKa (basic group) was determined as 6.18.
Turning to `CC1C(=O)CC(C)(C)CC1=O`, the pKa (acidic group) is 5.6.
Same read-out and setting: the result for `Cc1[nH]c2ccccc2c1C(=O)O` reads 5.89.
Under “basic group”, `c1ccc(-c2cc3c(-c4ccccc4)ccnc3c3ncccc23)cc1` registered a pKa of 4.69.

The values above are taken from the pKa sets of Baltruschat and Czodrowski (2020).
